ChEMBL document CHEMBL1125536, “Studies on neurokinin antagonists. 2. Design and structure-activity relationships of novel tripeptide substance P antagonists, N alpha-[N alpha-(N alpha-acetyl-L-threonyl)-N1-formyl-D-tryptophyl]-N- methyl-N-(phenylmethyl)-L-phenylalaninamide and its related compounds” (J Med Chem, 1992)
Square brackets hold non-standard residues; d marks the D form. Peptide text beside a SMILES is read from it. * marks the point of attachment. Boc = CC(C)(C)OC(=O)*; OBn = c1ccc(CO*)cc1; For = O=C*

Key:
[1] = Inhibition of [3H]SP binding to guinea pig lung membranes
[2] = target: Substance-P receptor (Cavia porcellus, UniProt P30547); assay: Compound was tested for the inhibition of [3H]SP binding to guinea pig lung membranes; Not active
[3] = species on record: Cavia porcellus; assay: Compound was tested for the inhibition of SP-induced contraction of isolated guinea pig trachea strips; format: functional

Chain of Substance-P receptor (P30547 whole entry): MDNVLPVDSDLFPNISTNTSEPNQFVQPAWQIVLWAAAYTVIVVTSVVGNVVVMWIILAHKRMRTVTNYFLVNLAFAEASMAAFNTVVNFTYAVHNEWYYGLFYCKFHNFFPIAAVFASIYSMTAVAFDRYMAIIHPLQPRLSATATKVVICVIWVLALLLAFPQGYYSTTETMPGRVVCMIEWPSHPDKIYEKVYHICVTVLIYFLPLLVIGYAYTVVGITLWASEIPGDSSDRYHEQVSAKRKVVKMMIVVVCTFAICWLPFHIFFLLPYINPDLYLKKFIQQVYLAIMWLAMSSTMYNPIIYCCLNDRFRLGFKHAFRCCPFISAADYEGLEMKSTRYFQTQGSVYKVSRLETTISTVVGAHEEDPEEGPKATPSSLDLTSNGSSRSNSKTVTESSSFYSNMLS

Row | SMILES | IC50 [1] | other results
1 | CC(O)C(NC(=O)CCCC(=O)O)C(=O)N[C@H](Cc1cn(C=O)c2ccccc12)C(=O)N[C@@H](Cc1ccccc1)C(=O)N(C)Cc1ccccc1 (stereo partly drawn) | – | IC50 [2]: Not Active
2 | CC(O)C(C(=O)N[C@H](Cc1cn(C=O)c2ccccc12)C(=O)N[C@@H](Cc1ccccc1)C(=O)N(C)Cc1ccccc1)N(C)C(=O)OC(C)(C)C (stereo partly drawn) | 290 nM | –
3 | CC(C)(C)OC(=O)N[C@@H](CCC(N)=O)C(=O)N[C@H](Cc1cn(C=O)c2ccccc12)C(=O)N[C@@H](Cc1ccccc1)C(=O)NCc1ccccc1 | 860 nM | –
4 | C[C@@H](O)[C@H](NC(=O)CN)C(=O)N[C@H](Cc1cn(C=O)c2ccccc12)C(=O)N[C@@H](Cc1ccccc1)C(=O)N(C)Cc1ccccc1 | 230 nM | –
5 | CN(Cc1ccccc1)C(=O)[C@H](Cc1ccccc1)NC(=O)[C@@H](Cc1cn(C=O)c2ccccc12)NC(=O)CC(NC(=O)OC(C)(C)C)C(N)=O (stereo partly drawn) | 180 nM | –
6 | CC(C)(C)OC(=O)N[C@@H](CCC(N)=O)C(=O)N[C@H](Cc1cn(C=O)c2ccccc12)C(=O)N[C@@H](Cc1ccccc1)C(=O)CCc1ccccc1 | 430 nM | –
7 | CC(O)C(NC(=O)CCC(=O)O)C(=O)N[C@H](Cc1cn(C=O)c2ccccc12)C(=O)N[C@@H](Cc1ccccc1)C(=O)N(C)Cc1ccccc1 (stereo partly drawn) | – | IC50 [2]: Not Active
8 | CC(=O)NC(Cc1c[nH]cn1)C(=O)N[C@H](Cc1cn(C=O)c2ccccc12)C(=O)N[C@@H](Cc1ccccc1)C(=O)N(C)Cc1ccccc1 (stereo partly drawn) | 100 nM | –
9 | CN(Cc1ccccc1)C(=O)[C@H](Cc1ccccc1)NC(=O)[C@@H](Cc1cn(C=O)c2ccccc12)NC(=O)C(Cc1c[nH]cn1)NC(=O)OC(C)(C)C (stereo partly drawn) | 140 nM | –
10 | CN(Cc1ccccc1)C(=O)[C@H](Cc1ccccc1)NC(=O)[C@@H](Cc1cn(C=O)c2ccccc12)NC(=O)C1CC(O)CN1C(=O)OC(C)(C)C (stereo partly drawn) | 200 nM | –
11 | CC(O)C(NC(=O)CCN)C(=O)N[C@H](Cc1cn(C=O)c2ccccc12)C(=O)N[C@@H](Cc1ccccc1)C(=O)N(C)Cc1ccccc1 (stereo partly drawn) | 100 nM | –
12 | CC(O)C(N)C(=O)N[C@H](Cc1cn(C=O)c2ccccc12)C(=O)N[C@@H](Cc1ccccc1)C(=O)N(C)Cc1ccccc1 (stereo partly drawn) | 600 nM | –
13 | CC(C)(C)OC(=O)N[C@@H](CCC(N)=O)C(=O)N[C@H](Cc1cn(C=O)c2ccccc12)C(=O)N[C@@H](Cc1ccccc1)C(=O)OCc1ccccc1 (Boc-Gln-[dW](For)-Phe-OBn) | 90 nM | –

Now from value to molecule, other results behind:

Row | IC50 [1] | SMILES | other results
14 | 20 nM | CC(O)C(NC(=O)N1CCOCC1)C(=O)N[C@H](Cc1cn(C=O)c2ccccc12)C(=O)N[C@@H](Cc1ccccc1)C(=O)N(C)Cc1ccccc1 (stereo partly drawn) | –
15 | 30 nM | CC(=O)NC(CCC(=O)N(C)C)C(=O)N[C@H](Cc1cn(C=O)c2ccccc12)C(=O)N[C@@H](Cc1ccccc1)C(=O)N(C)Cc1ccccc1 (stereo partly drawn) | –
16 | 20 nM | CC(O)C(NC(=O)CO)C(=O)N[C@H](Cc1cn(C=O)c2ccccc12)C(=O)N[C@@H](Cc1ccccc1)C(=O)N(C)Cc1ccccc1 (stereo partly drawn) | –
17 | 5.8 nM | CC(=O)NC(C(=O)N[C@H](Cc1cn(C=O)c2ccccc12)C(=O)N[C@@H](Cc1ccccc1)C(=O)N(C)Cc1ccccc1)C(C)O (stereo partly drawn) | IC50 [3]: 2300 nM
18 | 40 nM | CN(C)C(=O)CCC(NC(=O)OC(C)(C)C)C(=O)N[C@H](Cc1cn(C=O)c2ccccc12)C(=O)N[C@@H](Cc1ccccc1)C(=O)N(C)Cc1ccccc1 (stereo partly drawn) | –
19 | 48 nM | CN(Cc1ccccc1)C(=O)[C@H](Cc1ccccc1)NC(=O)[C@@H](Cc1cn(C=O)c2ccccc12)NC(=O)[C@H](CCC(N)=O)NC(=O)OC(C)(C)C | –
20 | 60 nM | CC(O)C(NC(=O)OC(C)(C)C)C(=O)N[C@H](Cc1cn(C=O)c2ccccc12)C(=O)N[C@@H](Cc1ccccc1)C(=O)N(C)Cc1ccccc1 (stereo partly drawn) | –
21 | 50 nM | CC(=O)NC(CO)C(=O)N[C@H](Cc1cn(C=O)c2ccccc12)C(=O)N[C@@H](Cc1ccccc1)C(=O)N(C)Cc1ccccc1 (stereo partly drawn) | –
22 | 20 nM | CCN(CC)CCC(=O)NC(C(=O)N[C@H](Cc1cn(C=O)c2ccccc12)C(=O)N[C@@H](Cc1ccccc1)C(=O)N(C)Cc1ccccc1)C(C)O (stereo partly drawn) | –
